Numbered stars: 1 amine (or outer) side, 2 acyl side, 3 side chain; on linkers, the order of the positions; unused ones are H or OH. Square brackets hold non-standard residues; d marks the D form. Side chains are listed from the residue outwards. Peptide text beside a SMILES is read from it. * marks the point of attachment. γGlu = O=C(O)[C@H](CCC(=O)[*:2])N[*:1]; Palmitoyl = CCCCCCCCCCCCCCCC(=O)*; Aib = CC(C)(N)C(=O)O
Assays:
[1] = biological target: T1, human GLP-1 R (Homo sapiens, UniProt P43220); assay: Human GLP-1 receptor (GLP-1 R) activity assay, cAMP induction (AlphaScreen cAMP kit); assay type: cell-based; conditions: HEK293 cells expressing the human GLP-1 R, 15 min at 37° C., average values of multiple determinations, read-out: GLP1 R (EC50 in nM)
T1 construct: expressed in transfected cells
T1 sequence (P43220 24-463): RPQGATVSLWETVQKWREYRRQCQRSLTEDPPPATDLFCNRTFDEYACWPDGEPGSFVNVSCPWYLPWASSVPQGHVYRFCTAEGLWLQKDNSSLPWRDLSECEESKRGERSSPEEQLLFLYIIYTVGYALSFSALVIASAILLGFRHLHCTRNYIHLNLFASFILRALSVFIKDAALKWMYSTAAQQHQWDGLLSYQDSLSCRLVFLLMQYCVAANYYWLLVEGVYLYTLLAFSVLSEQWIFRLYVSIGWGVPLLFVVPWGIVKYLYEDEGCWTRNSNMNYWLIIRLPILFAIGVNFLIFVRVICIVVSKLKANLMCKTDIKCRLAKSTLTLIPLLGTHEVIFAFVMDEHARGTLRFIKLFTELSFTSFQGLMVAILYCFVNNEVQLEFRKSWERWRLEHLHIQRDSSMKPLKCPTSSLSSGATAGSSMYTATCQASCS
Summary of the method: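 Stable HEK293 clones expressing human GIP R or GLP-1 R, grown 1 day, washed in Tyrode's buffer (10 mM HEPES, pH 7.4), then stimulated with peptide. Cells lysed and cAMP quantified by AlphaScreen competition with biotinylated cAMP, 1 h dark incubation at room temperature.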

[2] = in vivo; conditions: C57BL/6J, mouse, plasma, sc, 200 nmol/kg
Method: C57BL/6J mice were given a single subcutaneous dose of 200 nmol/kg body weight of each peptide to be tested. Blood samples were drawn 0.5, 2, 4, 6, 8, 16, 24 and 36 hours post-dose by sublingual bleeding. At each time point, samples from two mice were taken, i.e. 16 mice per compound. The mice were euthanized immediately after blood sampling by cervical dislocation. Plasma samples were analyzed after solid phase extraction (SPE) by liquid chromatography mass spectrometry (LC-MS/MS).

[3] = tested on: Male C57BL/6J mice; assay: IPGTT (Intraperitoneal Glucose Tolerance Test) in mice; assay type: in vivo
Method: IPGTT (Intraperitoneal Glucose Tolerance Test) in Mice
Male C57BL/6J mice (Charles River, Germany) were maintained on normal chow (Altromin 1324, Brogaarden A/S, Gentofte, Denmark) and domestic quality water with added citric acid to pH˜3.6. The animals were housed pair-wise in a light-, temperature-, and humidity-controlled room (12:12 h light-dark cycle, with lights on at 06.00-18.00 hr; 20-22° C.; 50-80% relative humidity). Mice were fasted for 5 hr before the IPGTT. Peptides and vehicle were administered subcutaneously before the intraperitoneal injection of glucose (t=0 min; 2 g/kg; 5 ml/kg). Tail vein blood was sampled at time t=0 (before glucose administration), 15, 30, 45, 60, 90, and 120 min for measurements of blood glucose.

[4] = biological target: T2, human GIP R (Homo sapiens, UniProt P48546); assay: Human GIP receptor (GIP R) activity assay, cAMP induction (AlphaScreen cAMP kit); assay type: cell-based; conditions: HEK293 cells expressing the human GIP R; cAMP induction, 15 min at 37° C.; average values of multiple determinations; read-out: GIP R (EC50 in nM)
T2 construct: expressed in transfected cells
T2 sequence (P48546 22-466): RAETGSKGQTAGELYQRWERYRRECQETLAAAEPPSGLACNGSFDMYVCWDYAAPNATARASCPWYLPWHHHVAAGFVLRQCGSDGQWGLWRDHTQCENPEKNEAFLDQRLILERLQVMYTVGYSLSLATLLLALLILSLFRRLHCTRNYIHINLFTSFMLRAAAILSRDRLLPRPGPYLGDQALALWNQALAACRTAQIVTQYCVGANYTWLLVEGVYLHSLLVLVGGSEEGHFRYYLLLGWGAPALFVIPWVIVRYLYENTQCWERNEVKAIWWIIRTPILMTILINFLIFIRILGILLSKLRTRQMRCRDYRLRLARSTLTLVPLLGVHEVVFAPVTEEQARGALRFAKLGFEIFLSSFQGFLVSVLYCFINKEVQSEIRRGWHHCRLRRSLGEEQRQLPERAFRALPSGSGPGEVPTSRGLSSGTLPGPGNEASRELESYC
Method: Human GIP Receptor (GIP R) and GLP-1 Receptor (GLP-1 R) Activity Assay
In vitro effects of peptide conjugates of the invention were assessed by measuring the induction of cAMP following stimulation of the respective receptor by GIP, GLP1 or analogues of these, as outlined in the invention, using the AlphaSceen® cAMP kit from Perkin-Elmer according to instructions. Briefly. HEK293 cells expressing the human GIP R or GLP-1 R (stable cell lines generated through transfection of the cDNA for human GIP R or GLP-1 and selection of stable clones) were seeded at 30,000 cells/well in 96-well microtiter plates coated with 0.01% poly-L-lysine, and grown for 1 day in culture in 200 μl growth medium (DMEM, 10% FCS, Penicillin (100 IU/ml), Streptomycin (100 μg/ml)). On the day of analysis, growth medium was removed and the cells were washed once with […] Tyrode's buffer (Tyrode's Salts (9.6 g/1), 10 mM HEPES, pH 7.4). […] The Assay buffer was removed and cells are lysed in 80 μl Lysis buffer (0.1% w/v BSA, 5 mM HEPES, 0.3% v/v Tween-20) per well. From each well 10 μl lysed cells was transferred to a 384-well plate and mixed with 15 μl bead-mix (1 Unit/15 μl anti-cAMP Acceptor Beads, 1 Unit/15 μl Donor Beads, and 1 Unit/15 μl Biotinylated cAMP in Assay Buffer). The plates were mixed and incubated in the dark for an hour at room temperature before measuring using an Envision™ plate reader (Perkin-Elmer).

Row | SMILES | EC50 [1] [nM] | EC50 [4] [nM] | half-life [2] [h] | Effect on glucose tolerance as compared to vehicle ([3]; glucose 2 g/kg i.p., peptides s.c., all time points, p<0.05 vs. vehicle) | Reduction in blood glucose compared with liraglutide ([3]; time t=60 min, p<0.05 vs. liraglutide)
1 | CCCCCCCCCCCCCCCC(=O)N[C@@H](CCC(=O)NCCCC[C@H](NC(=O)[C@H](CCCCN)NC(=O)[C@H](CC(=O)O)NC(=O)[C@H](CC(C)C)NC(=O)[C@H](Cc1ccc(O)cc1)NC(=O)[C@@H](NC(=O)[C@H](CO)NC(=O)[C@H](Cc1ccc(O)cc1)NC(=O)[C@H](CC(=O)O)NC(=O)[C@H](CO)NC(=O)[C@@H](NC(=O)[C@H](Cc1ccccc1)NC(=O)[C@@H](NC(=O)CNC(=O)[C@H](CCC(=O)O)NC(=O)C(C)(C)NC(=O)[C@@H](N)Cc1ccc(O)cc1)[C@@H](C)O)[C@@H](C)O)[C@@H](C)CC)C(=O)N[C@@H](C)C(=O)N[C@@H](CCC(N)=O)C(=O)N[C@@H](CCCNC(=N)N)C(=O)N[C@@H](C)C(=O)N[C@@H](Cc1ccccc1)C(=O)N[C@H](C(=O)N[C@@H](CCC(=O)O)C(=O)N[C@@H](Cc1c[nH]c2ccccc12)C(=O)N[C@@H](CC(C)C)C(=O)N[C@@H](CC(C)C)C(=O)N[C@@H](C)C(=O)N[C@@H](CCC(N)=O)C(=O)NCC(=O)N1CCC[C@H]1C(=O)N[C@@H](CO)C(=O)N[C@@H](CO)C(=O)NCC(=O)N[C@@H](C)C(=O)N1CCC[C@H]1C(=O)N1CCC[C@H]1C(=O)N1CCC[C@H]1C(=O)N[C@@H](CO)C(N)=O)C(C)C)C(=O)O [Compound 33] (H-Y[Aib]EGTFTSDYSIYLDKK([γGlu-Palmitoyl])AQRAFVEWLLAQGPSSGAPPPS-NH2) | 0.031 | – | 3.7 | significantly improved glucose tolerance | statistically significant greater reduction
2 | CCCCCCCCCCCCCCCC(=O)N[C@@H](CCC(=O)NCCCC[C@H](NC(=O)[C@H](CO)NC(=O)[C@H](CC(=O)O)NC(=O)[C@H](CC(C)C)NC(=O)[C@H](Cc1ccc(O)cc1)NC(=O)[C@@H](NC(=O)[C@H](CO)NC(=O)[C@H](Cc1ccc(O)cc1)NC(=O)[C@H](CC(=O)O)NC(=O)[C@H](CO)NC(=O)[C@@H](NC(=O)[C@H](Cc1ccccc1)NC(=O)[C@@H](NC(=O)CNC(=O)[C@H](CCC(=O)O)NC(=O)C(C)(C)NC(=O)[C@@H](N)Cc1ccc(O)cc1)[C@@H](C)O)[C@@H](C)O)[C@@H](C)CC)C(=O)N[C@@H](C)C(=O)N[C@@H](C)C(=O)N[C@@H](Cc1c[nH]cn1)C(=O)N[C@@H](CC(=O)O)C(=O)N[C@@H](Cc1ccccc1)C(=O)N[C@H](C(=O)N[C@@H](CCC(=O)O)C(=O)N[C@@H](Cc1c[nH]c2ccccc12)C(=O)N[C@@H](CC(C)C)C(=O)N[C@@H](CC(C)C)C(=O)N[C@@H](CCCNC(=N)N)C(=O)N[C@@H](C)C(N)=O)C(C)C)C(=O)O [Compound 47] (H-Y[Aib]EGTFTSDYSIYLDSK([γGlu-Palmitoyl])AAHDFVEWLLRA-NH2) | – | 0.096 | – | – | –
3 | CC[C@H](C)[C@H](NC(=O)[C@H](CCCCN)NC(=O)[C@H](CC(=O)O)NC(=O)[C@H](CC(C)C)NC(=O)[C@H](C)NC(=O)[C@@H](NC(=O)[C@H](CO)NC(=O)[C@H](Cc1ccc(O)cc1)NC(=O)[C@H](CC(=O)O)NC(=O)[C@H](CO)NC(=O)[C@@H](NC(=O)[C@H](Cc1ccccc1)NC(=O)[C@@H](NC(=O)CNC(=O)[C@H](CCC(=O)O)NC(=O)C(C)(C)NC(=O)[C@@H](N)Cc1ccc(O)cc1)[C@@H](C)O)[C@@H](C)O)[C@@H](C)CC)C(=O)N[C@@H](C)C(=O)N[C@@H](CCC(N)=O)C(=O)N[C@@H](CCCNC(=N)N)C(=O)N[C@@H](C)C(=O)N[C@@H](Cc1ccccc1)C(=O)N[C@H](C(=O)N[C@@H](CC(N)=O)C(=O)N[C@@H](Cc1c[nH]c2ccccc12)C(=O)N[C@@H](CC(C)C)C(=O)N[C@H](C(=O)N[C@@H](C)C(=O)NC(C)(C)C(=O)N[C@@H](CCCCN)C(N)=O)C(C)C)C(C)C [Compound 3] (H-Y[Aib]EGTFTSDYSIALDKIAQRAFVNWLVA[Aib]K-NH2) | 0.022 | 0.015 | – | – | –

Continued, in another order:

Row | EC50 [1] [nM] | EC50 [4] [nM] | SMILES | half-life [2] [h] | Effect on glucose tolerance as compared to vehicle ([3]; glucose 2 g/kg i.p., peptides s.c., all time points, p<0.05 vs. vehicle) | Reduction in blood glucose compared with liraglutide ([3]; time t=60 min, p<0.05 vs. liraglutide)
4 | 0.012 | 0.007 | CC[C@H](C)[C@H](NC(=O)[C@H](CO)NC(=O)[C@H](Cc1ccc(O)cc1)NC(=O)[C@H](CC(=O)O)NC(=O)[C@H](CO)NC(=O)[C@@H](NC(=O)[C@H](Cc1ccccc1)NC(=O)[C@@H](NC(=O)CNC(=O)[C@H](CCC(=O)O)NC(=O)C(C)(C)NC(=O)[C@@H](N)Cc1ccc(O)cc1)[C@@H](C)O)[C@@H](C)O)C(=O)N[C@@H](Cc1ccc(O)cc1)C(=O)N[C@@H](CC(C)C)C(=O)N[C@@H](CC(=O)O)C(=O)N[C@@H](CCCCN)C(=O)N[C@@H](CCCCN)C(=O)N[C@@H](C)C(=O)N[C@@H](C)C(=O)N[C@@H](Cc1c[nH]cn1)C(=O)N[C@@H](CC(=O)O)C(=O)N[C@@H](Cc1ccccc1)C(=O)N[C@H](C(=O)N[C@@H](CCC(=O)O)C(=O)N[C@@H](Cc1c[nH]c2ccccc12)C(=O)N[C@@H](CC(C)C)C(=O)N[C@@H](CC(C)C)C(=O)N[C@@H](CO)C(=O)N[C@@H](C)C(N)=O)C(C)C [Compound 42] (H-Y[Aib]EGTFTSDYSIYLDKKAAHDFVEWLLSA-NH2) | – | – | –
5 | 0.012 | 0.053 | CC[C@H](C)[C@H](NC(=O)[C@H](CO)NC(=O)[C@H](Cc1ccc(O)cc1)NC(=O)[C@H](CC(=O)O)NC(=O)[C@H](CO)NC(=O)[C@@H](NC(=O)[C@H](Cc1ccccc1)NC(=O)[C@@H](NC(=O)CNC(=O)[C@H](CCC(=O)O)NC(=O)C(C)(C)NC(=O)[C@@H](N)Cc1ccc(O)cc1)[C@@H](C)O)[C@@H](C)O)C(=O)N[C@@H](Cc1ccc(O)cc1)C(=O)N[C@@H](CC(C)C)C(=O)N[C@@H](CC(=O)O)C(=O)N[C@@H](CO)C(=O)N[C@@H](CCCCN)C(=O)N[C@@H](C)C(=O)N[C@@H](CCC(N)=O)C(=O)N[C@@H](CCCNC(=N)N)C(=O)N[C@@H](C)C(=O)N[C@@H](Cc1ccccc1)C(=O)N[C@H](C(=O)N[C@@H](CC(N)=O)C(=O)N[C@@H](Cc1c[nH]c2ccccc12)C(=O)N[C@@H](CC(C)C)C(=O)N[C@@H](CC(C)C)C(=O)N[C@@H](C)C(=O)NC(C)(C)C(=O)N[C@@H](CCCCN)C(N)=O)C(C)C [Compound 16] (H-Y[Aib]EGTFTSDYSIYLDSKAQRAFVNWLLA[Aib]K-NH2) | – | – | –
6 | 0.018 | 0.007 | CC[C@H](C)[C@H](NC(=O)[C@H](CO)NC(=O)[C@H](Cc1ccc(O)cc1)NC(=O)[C@H](CC(=O)O)NC(=O)[C@H](CO)NC(=O)[C@@H](NC(=O)[C@H](Cc1ccccc1)NC(=O)[C@@H](NC(=O)CNC(=O)[C@H](CCC(=O)O)NC(=O)C(C)(C)NC(=O)[C@@H](N)Cc1ccc(O)cc1)[C@@H](C)O)[C@@H](C)O)C(=O)N[C@@H](Cc1ccc(O)cc1)C(=O)N[C@@H](CC(C)C)C(=O)N[C@@H](CCC(=O)O)C(=O)N[C@@H](CCCCN)C(=O)N[C@@H](CCCCN)C(=O)N[C@@H](C)C(=O)N[C@@H](C)C(=O)N[C@@H](Cc1c[nH]cn1)C(=O)N[C@@H](CC(=O)O)C(=O)N[C@@H](Cc1ccccc1)C(=O)N[C@H](C(=O)N[C@@H](CCC(=O)O)C(=O)N[C@@H](Cc1c[nH]c2ccccc12)C(=O)N[C@@H](CC(C)C)C(=O)N[C@@H](CC(C)C)C(=O)N[C@@H](CO)C(=O)N[C@@H](C)C(N)=O)C(C)C [Compound 38] (H-Y[Aib]EGTFTSDYSIYLEKKAAHDFVEWLLSA-NH2) | – | – | –
